“And” between values parts separate entries of the source, which are not always exact repeats. Equal entries are not always repeated.
Tested on: HOP-62 complex spheroids with HUVEC/MSC, viability
Assay: Anticancer human tumor HOP-62 cell line growth inhibition [RAS];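 also: spheroids exposed to agents for seven days before readout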
Settings: for viability, T/C: stronger effect = lower value; active = viability on the fitted dose curve at most 10% of control; inactive = the rest
Source text: RAS pathway inhibitors in Combinations in Complex Spheroids
A high-throughput screen of multi-cell type tumor spheroids was designed to identify active combinations of RAS pathway inhibitors and targeted small molecules. Complex spheroids include a stromal component modeled by human endothelial cells (HUVEC) and fibroblasts modeled by human mesenchymal stem cells (MSCs). The concentration ranges selected for each drug and investigational agent were based upon clinically achievable concentrations if the clinical Cmax of the agent was known.
Compounds. The drugs and investigational agents: abemaciclib (NSC768073), cobimetinib (NSC768068), divarasib (GDC6063, NSC841802), docetaxel (NSC628503), GDC-1971 (RLY-1971, NSC841576), gemcitabine (NSC613327), inavolisib (NSC800729), ipatasertib (NSC767898), KB-0742 (NSC834161), MRTX-1133 (NSC836407), osimertinib (NSC779217), RMC-4630 (NSC839698), RMC-6236 (NSC851965), RMC-6291 (NSC852671), Ro-3306 (NSC812927), sapanisertib (NSC764658), SN-38 (NSC673596), staurosporine (NSC755774), SY5609 (NSC837396), and tovorafenib (DAY101, NSC766906), were obtained from the National Cancer Institute (NCI) Developmental Therapeutics Program Chemical Repository. The FDA-approved anticancer drug set is available from the NCI Developmental Therapeutics Program. […] The stock solutions were prepared in dimethyl sulfoxide (DMSO, Sigma-Aldrich, St. Louis, MO, cat. D2650) at 800-fold the tested concentration and stored at -70 degrees C prior to their use. All drugs and investigational agents were tested over a range starting from a high concentration at or near the clinical Cmax and decreasing in half-log increments. If the clinical Cmax for an agent had not been determined, the highest concentration tested was 10 microM.
Cell Culture. All cells were maintained in an incubator at 37 degrees C and 5% CO2 with 95% humidity. The PDC lines were cultured according to standard operating procedures established by the NCI PDMR. All PDCs were thawed and cultured in Matrigel-coated flasks prepared with a working solution of 1X Ham's F-12 nutrient mix, without supplementation (Invitrogen, Waltham, MA, cat. 11765054), 100 U/mL penicillin-streptomycin (Invitrogen, cat. 15140122), and 2.5% Matrigel (Corning Inc., Corning, NY, cat. 354248) for the first three passages. The 362531-283-R-J2-PDC and 782815-120-R-J1-PDC lines were cultured in 6C/Colon 1B media, which includes advanced DMEM/F-12 (Thermo Fisher Scientific, cat. 12634028), 10 mM HEPES (Thermo Fisher Scientific, cat. 15630080), 1X GlutaMAX supplement (Thermo Fisher Scientific, cat. 35050061), 0.1 mg/mL primocin (InvivoGen, San Diego, CA, cat. ant-pm-2), 10% defined fetal bovine serum, heat inactivated (HyClone Laboratories Inc., Logan, UT, cat. SH30070.03HI), 50% L-WRN conditioned media (ATCC, cat. CRL-3276), 1.25 mM N-Acetyl-L-cysteine (Sigma-Aldrich, cat. A9165), 10 mM nicotinamide (Sigma-Aldrich, cat. N0636), 1X B-27 supplement (Thermo Fisher Scientific, cat. 17504044), 1X N-2 supplement (Thermo Fisher Scientific, cat. 17502048), 50 ng/mL human EGF (Thermo Fisher Scientific, cat. PHG0311), and 10 microM Y-27632 dihydrochloride (Tocris Bioscience, cat. 1254). The K12877-001-R-J1-PDC line was cultured in 6I media, which includes all 6C/Colon 1B media plus 10 ng/mL human FGF-10 (PeproTech, cat. 100-26), 1 ng/mL human FGF-2 (PeproTech, cat. 100-18B), 1 µM prostaglandin E2 (Tocris Bioscience, cat. 2296), […] hydrocortisone (Sigma-Aldrich, cat. H4001), and […] bovine insulin (Sigma-Aldrich, cat. I6634). The K86415-001-R-J1-PDC line was cultured in 6D media, which includes all 6C/Colon 1B media components minus the L-WRN conditioned media. The 485176-168-R4-J1-PDC was cultured in PANC media, which includes all 6C/Colon 1B media plus 100 ng/mL human FGF-10 (PeproTech, cat. 100-26), 500 nM SB-431542 (Selleckchem, cat. S1067), and 10 nM gastrin (Tocris Bioscience, cat. 3006). […]

[1] = curve of first compound, second compound 0.0316 µM
[2] = curve of first compound, second compound 0.1 µM
[3] = curve of first compound, second compound 0.316 µM
[4] = curve of first compound, second compound 1 µM
[5] = curve of first compound, second compound 3.16 µM
[6] = curve of first compound, second compound 10 µM
[7] = second compound 0.0316 µM, first compound 0.00316 µM
[8] = second compound 0.0316 µM, first compound 0.01 µM
[9] = second compound 0.0316 µM, first compound 0.0316 µM
[10] = second compound 0.0316 µM, first compound 0.1 µM
[11] = second compound 0.0316 µM, first compound 0.316 µM
[12] = second compound 0.0316 µM, first compound 1 µM
[13] = second compound 0.1 µM, first compound 0.00316 µM
[14] = second compound 0.1 µM, first compound 0.01 µM
[15] = second compound 0.1 µM, first compound 0.0316 µM
[16] = second compound 0.1 µM, first compound 0.1 µM
[17] = second compound 0.1 µM, first compound 0.316 µM
[18] = second compound 0.1 µM, first compound 1 µM
[19] = second compound 0.316 µM, first compound 0.00316 µM
[20] = second compound 0.316 µM, first compound 0.01 µM
[21] = second compound 0.316 µM, first compound 0.0316 µM
[22] = second compound 0.316 µM, first compound 0.1 µM
[23] = second compound 0.316 µM, first compound 0.316 µM
[24] = second compound 0.316 µM, first compound 1 µM
[25] = second compound 1 µM, first compound 0.00316 µM
[26] = second compound 1 µM, first compound 0.01 µM
[27] = second compound 1 µM, first compound 0.0316 µM
[28] = second compound 1 µM, first compound 0.1 µM
[29] = second compound 1 µM, first compound 0.316 µM
[30] = second compound 1 µM, first compound 1 µM
[31] = second compound 3.16 µM, first compound 0.00316 µM
[32] = second compound 3.16 µM, first compound 0.01 µM
[33] = second compound 3.16 µM, first compound 0.0316 µM
[34] = second compound 3.16 µM, first compound 0.1 µM
[35] = second compound 3.16 µM, first compound 0.316 µM
[36] = second compound 3.16 µM, first compound 1 µM
[37] = second compound 10 µM, first compound 0.00316 µM
[38] = second compound 10 µM, first compound 0.01 µM
[39] = second compound 10 µM, first compound 0.0316 µM
[40] = second compound 10 µM, first compound 0.1 µM
[41] = second compound 10 µM, first compound 0.316 µM
[42] = second compound 10 µM, first compound 1 µM

CC(Nc1ccc2c(c1)OCCn1cc(N3C(=O)OCC3C(F)F)nc1-2)C(N)=O (stereo not given)
2310 nM and > 10000 nM and 1990 nM: IC50 (curve of compound)
inactive: viability, T/C (compound 10 µM) 36.1% (2×) and 49.9% and 54.1%

NC1c2ccccc2OC12CCN(c1cnc3c(N4CCCc5ncccc54)n[nH]c3n1)CC2 (stereo not given)
inactive: viability, T/C (compound 0.0316 µM) 106% [middle of 4 runs]
4450 nM and > 10000 nM and 9130 nM: IC50 (curve of compound)

C=CC(=O)Nc1cc(Nc2nccc(-c3cn(C)c4ccccc34)n2)c(OC)cc1N(C)CCN(C)C + C#Cc1c(F)ccc2cc(O)cc(-c3ncc4c(N5CC6CCC(C5)N6)nc(OCC56CCCN5CC(F)C6)nc4c3F)c12
535 nM: IC50 [5]
< 3.16 nM: IC50 [6]
inactive: viability, T/C [7] 109% | viability, T/C [8] 105% | viability, T/C [9] 106% | viability, T/C [10] 109% | viability, T/C [11] 108% | viability, T/C [12] 93% | viability, T/C [13] 108% | viability, T/C [14] 114% | viability, T/C [15] 106% | viability, T/C [16] 100% | viability, T/C [17] 101% | viability, T/C [18] 90.4% | viability, T/C [19] 109% | viability, T/C [20] 102% | viability, T/C [21] 100% | viability, T/C [22] 112% | viability, T/C [23] 98% | viability, T/C [24] 83.6% | viability, T/C [25] 104% | viability, T/C [26] 105% | viability, T/C [27] 98.5% | viability, T/C [28] 93.2% | viability, T/C [29] 86.9% | viability, T/C [30] 75.1% | viability, T/C [31] 74.8% | viability, T/C [32] 74.3% | viability, T/C [33] 81% | viability, T/C [34] 81.8% | viability, T/C [35] 59.2% | viability, T/C [36] 38.9% | viability, T/C [37] 47.2% | viability, T/C [38] 45.9% | viability, T/C [39] 53% | viability, T/C [40] 40.4% | viability, T/C [41] 35.4% | viability, T/C [42] 29.5%
> 1000 nM: IC50 [1] | IC50 [2] | IC50 [3] | IC50 [4]

CC(Nc1ccc2c(c1)OCCn1cc(N3C(=O)OCC3C(F)F)nc1-2)C(N)=O (stereo not given) + C#Cc1c(F)ccc2cc(O)cc(-c3ncc4c(N5CC6CCC(C5)N6)nc(OCC56CCCN5CC(F)C6)nc4c3F)c12
1020 nM: IC50 [3]
inactive: viability, T/C [9] 80.5% | viability, T/C [10] 69.2% | viability, T/C [11] 54.6% | viability, T/C [12] 59.8% | viability, T/C (second compound 0.0316 µM, first compound 3.16 µM) 42.8% | viability, T/C (second compound 0.0316 µM, first compound 10 µM) 32.9% | viability, T/C [15] 85.6% | viability, T/C [16] 78.5% | viability, T/C [17] 57% | viability, T/C [18] 58.4% | viability, T/C (second compound 0.1 µM, first compound 3.16 µM) 45.9% | viability, T/C (second compound 0.1 µM, first compound 10 µM) 32.8% | viability, T/C [21] 86.9% | viability, T/C [22] 68.9% | viability, T/C [23] 59.6% | viability, T/C [24] 52.9% | viability, T/C (second compound 0.316 µM, first compound 3.16 µM) 41.3% | viability, T/C (second compound 0.316 µM, first compound 10 µM) 31.4% | viability, T/C [27] 78.5% | viability, T/C [28] 67.4% | viability, T/C [29] 53.5% | viability, T/C [30] 50.6% | viability, T/C (second compound 1 µM, first compound 3.16 µM) 39.2% | viability, T/C (second compound 1 µM, first compound 10 µM) 28.4% | viability, T/C [33] 67.8% | viability, T/C [34] 41.7% | viability, T/C [35] 40% | viability, T/C [36] 32.3% | viability, T/C (second compound 3.16 µM, first compound 3.16 µM) 22.3% | viability, T/C (second compound 3.16 µM, first compound 10 µM) 15.1% | viability, T/C [39] 31.3% | viability, T/C [40] 22.8% | viability, T/C [41] 19.2% | viability, T/C [42] 17.3% | viability, T/C (second compound 10 µM, first compound 3.16 µM) 12.6% | viability, T/C (second compound 10 µM, first compound 10 µM) 10.2%
< 31.6 nM: IC50 [6]
1610 nM: IC50 [2]
96.4 nM: IC50 [5]
1330 nM: IC50 [1]
751 nM: IC50 [4]

O=C(c1ccc(F)c(F)c1Nc1ccc(I)cc1F)N1CC(O)([C@@H]2CCCCN2)C1 + C#Cc1c(F)ccc2cc(O)cc(-c3ncc4c(N5CC6CCC(C5)N6)nc(OCC56CCCN5CC(F)C6)nc4c3F)c12
< 3.16 nM: IC50 [6]
inactive: viability, T/C [7] 107% | viability, T/C [8] 113% | viability, T/C [9] 97.3% | viability, T/C [10] 54.2% | viability, T/C [11] 30.8% | viability, T/C [12] 25.2% | viability, T/C [13] 112% | viability, T/C [14] 114% | viability, T/C [15] 90.2% | viability, T/C [16] 61% | viability, T/C [17] 31.3% | viability, T/C [18] 24% | viability, T/C [19] 113% | viability, T/C [20] 108% | viability, T/C [21] 88.3% | viability, T/C [22] 58.1% | viability, T/C [23] 32.2% | viability, T/C [24] 26.8% | viability, T/C [25] 96.7% | viability, T/C [26] 95.7% | viability, T/C [27] 82% | viability, T/C [28] 50.1% | viability, T/C [29] 33.2% | viability, T/C [30] 25.3% | viability, T/C [31] 73.6% | viability, T/C [32] 63.6% | viability, T/C [33] 56.3% | viability, T/C [34] 36.5% | viability, T/C [35] 22.3% | viability, T/C [36] 18.3% | viability, T/C [37] 46.4% | viability, T/C [38] 47.9% | viability, T/C [39] 32.2% | viability, T/C [40] 23.9% | viability, T/C [41] 12.5% | viability, T/C [42] 11.7%
106 nM: IC50 [4]
141 nM: IC50 [3]
122 nM: IC50 [1]
42.1 nM: IC50 [5]
149 nM: IC50 [2]
